Biological target: T1, growth hormone secretagogue receptor (Homo sapiens, UniProt Q92847)
T1 construct: expressed in transfected cells; host or cells: HEK 293 (EBNA) cells, membrane preparation
Test: Saturation binding assay using T-MK0677 on transfected HEK 293 (EBNA) cell membranes
Description: Human Embryonic Kidney HEK 293 (EBNA) cells were grown in suspension and transfected according to the method previously described (Schlaeger and Christensen, Cytotechnology, 30, 71-83, 1999). The cells were centrifugated for 10 min at 500 rpm, washed once with PBS-0.7 mM EDTA/(4° C.) and resuspended in PBS-EDTA-PI (with Protease inhibitor cocktail), at 2 ml/g of cells. Cells were broken with Ultra Turax level green 3×15″ with 30″ breaks on ice. To remove debris the suspension was centrifugated in a Sorvall SS34 rotor for 20 min at 2,000 rpm. The supernatant was collected and centrifugated for 40 min at 20,000 rpm. The pellet was resuspended in PBS-EDTA. Receptor density was verified with saturation binding assay using T-MK 0677 to be 4.9 pmol/mg protein.
The membrane was resuspended in Binding buffer (25 mM Hepes, pH 7.4, 25 mM MgCl2, 1 mM CaCl2, 0.1% BSA, 0.03% Bacitracine (protease inhibitor)) to 0.1 to 2 μg/well. […]
A filter plate (Packard GF/B unifilter plate) was treated with 50 μL/well 0.5% polyethyleneimine (PEI) in PBS for 15 min. […] Then 50 μL of Microscint 0 were added per well and the T decay counted in a topcount from Packard Instruments.

T1 sequence (Q92847 whole entry): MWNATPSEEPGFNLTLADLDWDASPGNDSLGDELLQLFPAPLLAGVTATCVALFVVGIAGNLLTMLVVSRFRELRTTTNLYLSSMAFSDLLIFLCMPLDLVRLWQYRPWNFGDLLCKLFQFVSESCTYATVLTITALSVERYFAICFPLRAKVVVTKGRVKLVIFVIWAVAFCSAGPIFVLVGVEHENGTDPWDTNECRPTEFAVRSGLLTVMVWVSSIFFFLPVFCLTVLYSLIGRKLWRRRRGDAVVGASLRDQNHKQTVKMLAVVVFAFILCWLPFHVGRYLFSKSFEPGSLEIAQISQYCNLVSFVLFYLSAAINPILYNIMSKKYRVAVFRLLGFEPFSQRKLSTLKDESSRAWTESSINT

Substance: tris-tritiated-2-amino-N-[(1R)-2-[1,2-dihydro-1-(methylsulfonyl)spiro[3H-indole-3,4′-piperidin]-1′-yl]-2-oxo-1-[(phenylmethoxy)methyl]ethyl]-2-methyl-, monomethanesulfonate [T-MK 0677]
- Receptor density: 4.9 pmol/mg protein
